Where a name gives a salt, the structure may show the parent alone.

The target of test [1] is T1, CCR3 (Homo sapiens, UniProt P51677).
T1 construct: Human eosinophils were isolated from EDTA anticoagulated peripheral blood; endogenous in cells; host or cells: human peripheral blood eosinophils
T1 sequence (P51677 1-355): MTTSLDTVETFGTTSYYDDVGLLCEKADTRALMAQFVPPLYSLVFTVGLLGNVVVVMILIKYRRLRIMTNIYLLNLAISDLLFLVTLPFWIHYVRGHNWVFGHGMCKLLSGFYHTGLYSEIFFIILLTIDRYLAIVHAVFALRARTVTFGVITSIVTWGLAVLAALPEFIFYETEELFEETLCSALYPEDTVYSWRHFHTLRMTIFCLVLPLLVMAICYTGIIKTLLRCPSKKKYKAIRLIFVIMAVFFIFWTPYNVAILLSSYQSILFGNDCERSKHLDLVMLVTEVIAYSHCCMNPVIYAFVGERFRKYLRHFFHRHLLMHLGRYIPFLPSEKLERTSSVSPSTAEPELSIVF
Briefly: Human eosinophil chemotaxis (eotaxin mediated). Format: cell-based. Conditions: read-out: % inhibition at 3 nM eotaxin (1 uM compound), human eosinophils.

Test [2] has as its target T2, human H1 receptor (Homo sapiens, UniProt P35367).
T2 construct: purchased Euroscreen SA, Brussels, Belgium ES-390-M; host or cells: recombinant CHO-K1 cells (membranes)
Briefly: Histamine H1 receptor binding, competition displacement of [3H]-pyrilamine. The note with it: 1 nM [3H]-pyrilamine; membranes from recombinant CHO-K1 cells expressing the human H1 receptor; read-out: H1 pKi/[1328_S] (converted). Background: In a radioligand displacement assay an active substance lowers the binding of a labelled ligand.

T2 sequence (P35367 whole entry): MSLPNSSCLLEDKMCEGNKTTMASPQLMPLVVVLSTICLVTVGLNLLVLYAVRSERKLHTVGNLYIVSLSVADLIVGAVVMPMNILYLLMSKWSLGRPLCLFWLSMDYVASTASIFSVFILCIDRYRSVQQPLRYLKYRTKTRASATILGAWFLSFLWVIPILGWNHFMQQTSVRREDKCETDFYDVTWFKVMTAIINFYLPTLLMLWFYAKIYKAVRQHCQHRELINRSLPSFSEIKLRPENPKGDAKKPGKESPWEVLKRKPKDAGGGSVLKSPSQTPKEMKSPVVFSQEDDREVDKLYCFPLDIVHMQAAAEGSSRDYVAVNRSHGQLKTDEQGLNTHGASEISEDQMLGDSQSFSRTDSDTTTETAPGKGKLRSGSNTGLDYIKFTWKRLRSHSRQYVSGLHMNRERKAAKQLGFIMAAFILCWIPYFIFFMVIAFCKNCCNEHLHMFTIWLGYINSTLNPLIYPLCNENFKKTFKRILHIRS

Regarding `CN(C[C@@H](O)CN1CCC(Oc2ccc(Cl)c(Cl)c2)CC1)C(=O)c1c[nH]c(=O)c2ccccc12` [Example 52, N-{(2S)-3-[4-(3,4-Dichlorophenoxy)piperidin-1-yl]-2-hydroxypropyl}-N-methyl-1-oxo-1,2-dihydroisoquinoline-4-carboxamide], the inhibition (in general, the drop in the measured response relative to a control, in per cent) at 1 µM in test [1] is 95%. The Ki in test [2] was 3.98 nM.
Regarding `NC(=O)c1c(OC2CCN(C[C@H](O)CNC(=O)c3c[nH]c(=O)c4ccccc34)CC2)ccc(Cl)c1Cl` [Example 132], the inhibition at 1 µM in test [1] worked out at 101%.
The same measure, in the same setting: with `O=C(NC[C@@H](O)CN1CCC(Oc2ccc(Cl)c(Cl)c2)CC1)n1c(=O)[nH]c2ccccc21` [Example 45, N-{3-[4-(3,4-Dichlorophenoxy)piperidin-1-yl]-2-hydroxypropyl}-2-oxo-2,3-dihydro-1H-benzimidazole-1-carboxamide] the figure was 102%; with `N#Cc1ccc(OC2CCN(C[C@H](O)CNC(=O)c3c[nH]c(=O)c4ccccc34)CC2)cc1Cl` [Example 197, N-{(2R)-3-[4-(3-Chloro-4-cyanophenoxy)piperidin-1-yl]-2-hydroxypropyl}-1-oxo-1,2-dihydroisoquinoline-4-carboxamide], 103%.
In the case of `O=C(NC[C@@H](O)CN1CCC(Oc2ccc(Cl)c(Cl)c2)CC1)c1c[nH]c2ccccc12` [Example 47, N-{(2R)-3-[4-(3,4-Dichlorophenoxy)piperidin-1-yl]-2-hydroxypropyl}-1H-indole-3-carboxamide], the inhibition at 1 µM in test [1] came out at 104%. Besides, in test [2], the Ki is 7.94 nM.
With `Cc1c(Cl)ccc(OC2CCN(C[C@H](O)CNC(=O)c3c[nH]c(=O)c4ccccc34)CC2)c1Cl` [Example 17, N-{(2R)-3-[4-(2,4-Dichloro-3-methylphenoxy)piperidin-1-yl]-2-hydroxypropyl}-1-oxo-1,2-dihydroisoquinoline-4-carboxamide], the inhibition at 1 µM in test [1] turned out to be 103%. Moreover, in test [2], the Ki is 7.94 nM.
In the case of `O=C(NC[C@@H](O)CN1CCC(Oc2ccc(Cl)c(Cl)c2)CC1)c1n[nH]c(=O)c2ccccc12` [Example 46, N-{(2R)-3-[4-(3,4-Dichlorophenoxy)piperidin-1-yl]-2-hydroxypropyl}-oxo-3,4-dihydrophthalazine-1-carboxamide], the inhibition at 1 µM in test [1] is 105%.
Consider `O=C(NC[C@@H](O)CN1CCC(Oc2ccc(Cl)c(Cl)c2)CC1)[C@@H](O)c1ccccc1` [Example 58, (2S)-N-{(2R)-3-[4-(3,4-Dichlorophenoxy)piperidin-1-yl]-2-hydroxypropyl}-2-hyroxy-2-phenylethanamide], for which the inhibition at 1 µM in test [1] came to 104%. Also, the Ki in test [2] was 63.1 nM.
For `Cc1cc(Cl)ccc1OC1CCN(C[C@@H](O)CNC(=O)c2c[nH]c(=O)c3ccccc23)CC1` [Example 186, N-{(2S)-3-[4-(4-Chloro-2-methylphenoxy)piperidin-1-yl]-2-hydroxypropyl}-1-oxo-1,2-dihydroisoquinoline-4-carboxamide acetate salt] the same measures were 104% and 12.6 nM.
Regarding `Cc1c(Cl)ccc(OC2CCN(C[C@H](O)CNC(=O)c3c[nH]c(=O)c4cc(S(C)(=O)=O)ccc34)CC2)c1Cl` [Example 215, N-{(2R)-3-[4-(2,4-Dichloro-3-methylphenoxy)piperidin-1-yl]-2-hydroxypropyl}-7-(methylsulfonyl)-1-oxo-1,2-dihydroisoquinoline-4-carboxamide acetate salt], the inhibition at 1 µM in test [1] came out at 103%.
Same read-out and setting: the same measure for `CS(=O)(=O)c1ccc2c(C(=O)NC[C@@H](O)CN3CCC(Oc4ccc(C#N)c(Cl)c4)CC3)c[nH]c(=O)c2c1` [Example 206, N-{(2R)-3-[4-(3-Chloro-4-cyanophenoxy)piperidin-1-yl]-2-hydroxypropyl}-7-(methylsulfonyl)-1-oxo-1,2-dihydroisoquinoline-4-carboxamide]: 99%.
In the case of `CN(C[C@@H](O)CN1CCC(Oc2ccc(Cl)c(Cl)c2)CC1)C(=O)c1n[nH]c2ccccc12` [Example 53, N-{(2S)-3-[4-(3,4-Dichlorophenoxy)piperidin-1-yl]-2-hydroxypropyl}-N-methyl-1H-indazole-3-carboxamide], the inhibition at 1 µM in test [1] amounted to 105%. The Ki in test [2] is 7.94 nM.
Take `O=C(NC[C@@H](O)CN1CCC(Oc2ccc(Cl)c(Cl)c2)CC1)c1c[nH]c(=O)c2ccccc12` [Example 10, N-{(2R)-3-[4-(3,4-Dichlorophenoxy)piperidin-1-yl]-2-hydroxypropyl}-1-oxo-1,2-dihydroisoquinoline-4-carboxamide]: in test [1], the inhibition at 1 µM was 106%.

The values above are taken from patent publication US7709500B2, “Chemical compounds” (AstraZeneca AB, priority 2002, dated 2010).
